From PMC6162693, “Investigation into the Thermal Response and Pharmacological Activity of Substituted Schiff Bases on α-Amylase and α-Glucosidase” (Antioxidants, 2018)
Values after ≈ are worked out from the molar mass of the structure shown. Where two headings read alike, the source gives them in different places.

How the values were obtained:
[1] = DPPH radical scavenging activity; conditions: absorbance at 517 nm, 30 min; mean ± SD (n = 3)
Protocol: (§1) The antioxidant activities of Schiff bases (1–9) were determined by DPPH, ABTS^+, H2O2, ferric reducing power assays, and compared with 3,4,5-trihydroxybenzoic acid (10), 5-(1,2-dihydroxyethyl)-3,4-dihydroxyfuran-2(5H)-one (11), and 2-(3,4-dihydroxyphenyl)-3,5,7-trihydroxy-4H-chromen-4-one (12) (as controls).
The scavenging activity of compounds (1–12) was evaluated by adding an ethanolic solution of DPPH (300 μL, 0.05 mM) and incubated for 30 min in the dark. After that, changes in the absorbance of the mixture were measured at 517 nm on a UV-Vis spectrophotometer. The percentage radical scavenging activities (%RSA) and half maximal inhibitory concentration (IC50) of the compounds were estimated from Equation (2) and by linear regression analysis, respectively. All studies were carried out in triplicate. (2) % RSA= 100⌊(Abs. of DPPH − Abs. of test compound)/(Abs. of DPPH)⌋

[2] = ABTS radical cation decolourisation assay; conditions: absorbance at 734 nm, 30 min; mean ± SD (n = 3)
Protocol: as §1
A mixture of ABTS (960.2 mg) and potassium persulphate (165.6 mg) was dissolved in 250 mL of distilled water to generate the blue-green ABTS^+ solution. The ABTS solution was stored away in the dark at ambient temperature for 24 h to generate sufficient ABTS radical cation (ABTS^+), then the absorbance was adjusted to 0.9547 with distilled water. Precisely 40 µL solution of the compounds were added to 3 mL ABTS^+ solution and incubated at 298 K for 30 min in the dark. Changes in concentration of ABTS^+ were measured at 734 nm on a spectrophotometer. The degree of ABTS^+ decolourisation was a template for evaluating the percentage proton-donating potential (%PDP) of the test compounds [24]; estimated from Equation (3). The IC50 (μM) of the compounds were determined by linear regression analysis, and all analyses were carried out in triplicate. (3) % PDP = 100⌊(Abs. of ABTS ^+ − Abs. of test compound)/(Abs. of ABTS^+)⌋

H2O2-scavenging activity = conditions: absorbance at 230 nm; mean ± SD (n = 3)
Protocol: as §1
According to the methods of Ruch et al., the H2O2 scavenging activity of compounds (1–12) was evaluated. To 100 µL aliquot of the test compounds was added 0.4 mL of 50 mM phosphate buffer followed by 0.6 mL of 2 mM H2O2 solution prepared in 50 mM phosphate buffer (pH 6.8). The absorbance of the mixture was measured at 230 nm, thereafter, the %H2O2 scavenging activity (Equation (4)) and IC50 (μM) of the compounds 1–12 was determined. All analyses were carried out in triplicate. (4) % H2O2 − scavenging activity = 100⌊(Abs. of H2O2 − Abs. of test compound)/(Abs. of H2O2)⌋

Staphylococcus aureus = test: Broth microdilution antimicrobial assay, S. aureus; format: cell-based; conditions: Staphylococcus aureus, read-out: MBC S. aureus
Protocol: (§2) Exactly 1.5 mg of sodium;10-oxido-7-oxophenoxazin-10-ium-3-olate was dissolved in 100 mL of distilled water, vortexed, filtered, sterilised, and stored at 4 °C for a maximum of 14 days before being applied as a growth indicator. 1000 μM stock solution of Schiff bases (1–9) was prepared in DMSO.
(§3) Fungi (Aspergillus niger, Candida albicans), Gram-positive bacteria (Staphylococcus aureus, Enterococcus faecalis), and Gram-negative bacteria (Salmonella typhi, Escherichia coli).
(§4) Colonies from a 24 h culture agar plate were collected with a loop and transferred to a tube containing lysogeny broth (LB). The various suspensions were incubated at 37 °C and the size adjusted to 1.5 × 10^6 CFU/mL [27].
(§5) The antimicrobial activity of Schiff bases (1–9), was evaluated using 96-well broth microdilution method as described by de Rapper et al. (2013) and Akhalwaya et al. (2018) with slight modifications. Columns 1–11 was filled 50 µL LB, followed by the addition of 50 µL of Schiff base to column 1. Thereafter, 50 µL of Schiff bases from column 1 was transferred by multichannel pipette to columns 2–10, resulting in 50 µL Schiff bases per well. Column 11 contained 100 µL of diluted standardised inoculum, while Column 12 contained 100 µL of LB as a control to monitor sterility. Then, 50 µL of the microorganism suspension was then added to columns 1–10 and the control column 11. The plates were incubated at 37 °C for 24 h, followed by the addition of 30 µL of growth indicator solution and further incubated for 2 h for the observation of colour change. On completion of incubation, the columns with blue indicator colour were reported as the MIC (µM) values. The columns with a concentration higher than the MIC value were plated on nutrient agar to determine the minimum bactericidal and fungicidal concentrations.

Enterococcus faecalis = test: Broth microdilution antimicrobial assay, E. faecalis; format: cell-based; conditions: Enterococcus faecalis, read-out: MBC E. faecalis
Protocol: as §2, §3, §4, §5

Escherichia coli = test: Broth microdilution antimicrobial assay, E. coli; format: cell-based; conditions: Escherichia coli, read-out: MBC E. coli
Protocol: as §2, §3, §4, §5

Salmonella typhi = test: Broth microdilution antimicrobial assay, S. typhi; format: cell-based; conditions: for MBC: Salmonella enterica, TYPHI, read-out: MBC S. typhi
Protocol: as §2, §3, §4, §5

Aspergillus niger = test: Broth microdilution antimicrobial assay, A. niger; format: cell-based
Protocol: as §2, §3, §4, §5

Candida albicans = test: Broth microdilution antimicrobial assay, C. albicans; format: cell-based
Protocol: as §2, §3, §4, §5

α-glucosidase = test: α-Glucosidase inhibitory activity; format: biochemical; conditions: Means ×10^2 ± SD from at least three experiments
Protocol: The inhibitory activity of Schiff bases (1-9) against α-glucosidase was assessed by the method previously described by […] et al. […] Then, approximately 0.2 mL of Schiff base solution was mixed with 1.0 mL of 50 mM sodium phosphate buffer (pH 6.9) and 50 μL of α-glucosidase solution (2 U/mL). Thereafter, incubated at 37 °C for 10 min, followed by the addition of exactly 50 μL of 0.7 mM p-nitrophenyl-α-D-glucopyranoside solution in 50 mM sodium phosphate buffer (pH 6.9) and further incubated for 30 min at 37 °C. The reaction was terminated by the addition of 2.0 mL solution of 0.5 M Na2CO3. 0.3 mL aliquot of the above mixture was mixed with 4.7 mL of distilled water and the absorbance measured at 405 nm. […] (6) α - glucosidase inhibition (%) = (Ae - ASB/Ae)100 where Ae is the absorbance of the enzyme solution after incubation and ASB is the absorbance after incubation of Schiff bases solution. The assay was performed in triplicate.

α-amylase = test: α-Amylase inhibitory activity; format: biochemical; conditions: Means ×10^2 ± SD from at least three experiments
Protocol: The α-amylase inhibitory activity of Schiff bases (1–9) was evaluated by the method reported by Xiao et al. with slight modifications. Substrate solution is prepared by dissolving 1.0 g of starch in 50 mL of 0.4 M NaOH and heated at 100 °C for 5 min. The substrate solution was adjusted to a neutral pH by the addition of 0.1 M HCl, cooled on crushed ice and made to 100 mL in a standard volumetric flask with distilled water. […] Using a microplate, 40 μL substrate and 20 μL Schiff base solution were mixed, then preincubated at 37 °C for 3 min. Thereafter, 20 μL of 50 μg/mL α-amylase solution was dispensed into each well, and further incubated for 15 min. The reaction was terminated by the addition of 80 μL HCl (0.1 M); followed by 200 μL of 1 mM iodine solution, and the absorbances measured at 650 nm. Inhibitory activity was calculated from Equation (5):(5) α − amylase inhibition (%) = (A2 − A1/A4 − A3)100 where A1 is the absorbance of Schiff base, starch, and α-amylase solution after incubation, A2 is the absorbance of Schiff base and starch solution after incubation, A3 is the absorbance of starch and amylase solution after incubation, and A4 is the absorbance of a starch solution after incubation. Thereafter, the IC50 value was determined from the plot of % inhibition versus concentration.

[3] = tested on: Fungi (Aspergillus niger, Candida albicans); test: Broth microdilution MIC, antifungal (fungus not specified); format: cell-based; conditions: read-out: MIC (antifungal)
Protocol: as §2, §3, §4
The antimicrobial activity of Schiff bases (1–9), was evaluated using 96-well broth microdilution method as described by de Rapper et al. (2013) and Akhalwaya et al. (2018) with slight modifications. Columns 1–11 was filled 50 µL LB, followed by the addition of 50 µL of Schiff base to column 1. Thereafter, 50 µL of Schiff bases from column 1 was transferred by multichannel pipette to columns 2–10, resulting in 50 µL Schiff bases per well. Column 11 contained 100 µL of diluted standardised inoculum, while Column 12 contained 100 µL of LB as a control to monitor sterility. Then, 50 µL of the microorganism suspension was then added to columns 1–10 and the control column 11. […]

Row | Compound | IC50 [1] | IC50 [2] | IC50 (H2O2-scavenging activity) | MBC (Staphylococcus aureus) | MBC (Enterococcus faecalis) | MBC (Escherichia coli) | MBC (Salmonella typhi) | MFC (Aspergillus niger; read-out: MFC A. niger) | MFC (Candida albicans; read-out: MFC C. albicans) | IC50 (α-glucosidase) | IC50 (α-amylase) | melting point | further results
1 | Oc1cc(N=Cc2ccccc2O)n[nH]1 [Compound 2, 3-(((2-hydroxyphenyl)methylidene)amino)-1H-pyrazol-5-ol] | 390 ± 5 µM | 510 ± 5 µM | 410 ± 6 µM | 4.31 µM (≈ 0.876 µg/mL) | > 4.31 µM | 4.31 µM (≈ 0.876 µg/mL) | > 4.31 µM | > 4.31 µM | > 4.31 µM | 120 ± 51 µM | 91 ± 9 µM | 370 °C | 
2 | Oc1cc(N=Cc2ccccc2)n[nH]1 [Compound 3, 3-((phenylmethylidene)amino)-1H-pyrazol-5-ol] | 360 ± 5 µM | 450 ± 7 µM | 410 ± 8 µM | > 5.35 µM | > 5.35 µM | 2.67 µM (≈ 0.5 µg/mL) | > 5.35 µM | > 5.35 µM | > 5.35 µM | 560 ± 82 µM | 200 ± 74 µM | 266 °C | MIC [3]: 0.67 µM (≈ 0.125 µg/mL)
3 | O=[N+]([O-])c1ccc(C=Nc2ccc(O)cc2)cc1 [Compound 4, 4-(((4-nitrophenyl)methylidene)amino)phenol] | 290 ± 6 µM | 370 ± 6 µM | 370 ± 7 µM |  |  | 2.07 µM (≈ 0.501 µg/mL) |  |  |  | 1390 ± 91 µM | 1380 ± 17 µM | 202 °C | MBC (Staphylococcus aureus; 24 h, * = no bactericidal effect at the evaluated concentration, n = 3): 4.31 µM (≈ 1.04 µg/mL); MBC (Enterococcus faecalis; 24 h): > 4.31 µM; MBC (Salmonella typhi; 24 h): > 4.31 µM; MFC (Aspergillus niger; 24 h, read-out: MFC A. niger): > 4.31 µM; MFC (Candida albicans; 24 h, read-out: MFC C. albicans): > 4.31 µM
4 | Oc1ccc(N=Cc2ccccc2O)cc1 [Compound 5, 4-(2-hydroxybenzylideneamino)phenol] | 260 ± 5 µM | 110 ± 5 µM | 320 ± 6 µM | > 4.69 µM |  |  | > 4.69 µM | > 4.69 µM | > 4.69 µM | 1380 ± 1250 µM |  |  | MBC (Enterococcus faecalis; * = no bactericidal effect at the evaluated concentration, n = 3): 4.69 µM (≈ 1 µg/mL); MBC (Escherichia coli; n = 3): 4.69 µM (≈ 1 µg/mL)
5 | Oc1ccc(N=Cc2ccccc2)cc1 [Compound 6, 4-(benzylideneamino)phenol] | 380 ± 2 µM | 260 ± 6 µM | 380 ± 5 µM | > 5.07 µM | > 5.07 µM |  | > 5.07 µM | > 5.07 µM | > 5.07 µM | 1420 ± 1730 µM | 1410 ± 17 µM | 302 °C | MBC (Escherichia coli; n = 3): 2.54 µM (≈ 0.501 µg/mL)
6 | O=S(=O)(O)c1cc(O)c(N=Cc2ccccc2O)c2ccccc12 [Compound 8, 4-(2-hydroxybenzylideneamino)-3-hydroxynaphthalene-1-sulphonic acid] | 210 ± 5 µM | 140 ± 5 µM | 240 ± 17 µM | > 2.92 µM | > 2.92 µM | 1.46 µM (≈ 0.501 µg/mL) | > 2.92 µM | 1.46 µM (≈ 0.501 µg/mL) | 1.46 µM (≈ 0.501 µg/mL) | 500 ± 82 µM | 420 ± 34 µM | 296 °C | antibacterial activity (growth inhibition), S. typhi (Salmonella typhi): inhibited only the growth of S. typhi
7 | O=S(=O)(O)c1cc(O)c(N=Cc2ccccc2)c2ccccc12 [Compound 9, 4-(benzylideneamino)-3-hydroxynaphthalene-1-sulphonic acid] | 220 ± 6 µM | 50 ± 4 µM | 190 ± 11 µM | > 3.06 µM | > 3.06 µM | 3.06 µM (≈ 1 µg/mL) | > 3.06 µM |  |  | 660 ± 97 µM | 561 ± 42 µM | 246 °C | MFC (Aspergillus niger; * = no fungicidal effect at the evaluated concentration, n = 3, read-out: MFC A. niger): 1.53 µM (≈ 0.501 µg/mL); MFC (Candida albicans; * = no fungicidal effect at the evaluated concentration, n = 3, read-out: MFC C. albicans): 1.53 µM (≈ 0.501 µg/mL)
8 | O=C(O)c1cc(O)c(O)c(O)c1 [Compound 10, 3,4,5-trihydroxybenzoic acid, reference compound] | 420 ± 3 µM | 580 ± 7 µM | 460 ± 11 µM |  |  |  |  |  |  |  |  |  | 
9 | O=C1OC(C(O)CO)C(O)=C1O (stereo not drawn) [Compound 11, 5-(1,2-dihydroxyethyl)-3,4-dihydroxyfuran-2(5H)-one, reference compound] | 350 ± 5 µM | 530 ± 6 µM | 440 ± 7 µM |  |  |  |  |  |  |  |  |  | 
10 | O=c1c(O)c(-c2ccc(O)c(O)c2)oc2cc(O)cc(O)c12 [Compound 12, 2-(3,4-dihydroxyphenyl)-3,5,7-trihydroxy-4H-chromen-4-one, reference compound] | 240 ± 3 µM | 270 ± 8 µM | 270 ± 10 µM |  |  |  |  |  |  |  |  |  | 
